From US20140187548A1, “6 SUBSTITUTED IMIDAZOPYRAZINES FOR USE AS MPS-1 AND TKK INHIBITORS IN THE TREATMENT OF HYPERPROLIFERATIVE DISORDERS” (BAYER INTELLECTUAL PROPERTY GMBH, priority 2010, published 2014)
pIC50: −log10 of the molar value. Structures can show the parent of a compound that is named as a salt.

target: T1, human kinase Mps-1 (Homo sapiens, UniProt P33981); assay: Mps-1 kinase assay (TR-FRET); assay type: biochemical; settings: N-terminally GST-tagged human full length recombinant Mps-1; 10 μM ATP; 1 μM peptide substrate; 15 min pre-incubation; 60 min at 22° C.
T1 construct: N-terminally GST-tagged human full length recombinant Mps-1 kinase; GST (N); purchased Invitrogen, Karslruhe, Germany PV4071
T1 sequence (P33981 1-857): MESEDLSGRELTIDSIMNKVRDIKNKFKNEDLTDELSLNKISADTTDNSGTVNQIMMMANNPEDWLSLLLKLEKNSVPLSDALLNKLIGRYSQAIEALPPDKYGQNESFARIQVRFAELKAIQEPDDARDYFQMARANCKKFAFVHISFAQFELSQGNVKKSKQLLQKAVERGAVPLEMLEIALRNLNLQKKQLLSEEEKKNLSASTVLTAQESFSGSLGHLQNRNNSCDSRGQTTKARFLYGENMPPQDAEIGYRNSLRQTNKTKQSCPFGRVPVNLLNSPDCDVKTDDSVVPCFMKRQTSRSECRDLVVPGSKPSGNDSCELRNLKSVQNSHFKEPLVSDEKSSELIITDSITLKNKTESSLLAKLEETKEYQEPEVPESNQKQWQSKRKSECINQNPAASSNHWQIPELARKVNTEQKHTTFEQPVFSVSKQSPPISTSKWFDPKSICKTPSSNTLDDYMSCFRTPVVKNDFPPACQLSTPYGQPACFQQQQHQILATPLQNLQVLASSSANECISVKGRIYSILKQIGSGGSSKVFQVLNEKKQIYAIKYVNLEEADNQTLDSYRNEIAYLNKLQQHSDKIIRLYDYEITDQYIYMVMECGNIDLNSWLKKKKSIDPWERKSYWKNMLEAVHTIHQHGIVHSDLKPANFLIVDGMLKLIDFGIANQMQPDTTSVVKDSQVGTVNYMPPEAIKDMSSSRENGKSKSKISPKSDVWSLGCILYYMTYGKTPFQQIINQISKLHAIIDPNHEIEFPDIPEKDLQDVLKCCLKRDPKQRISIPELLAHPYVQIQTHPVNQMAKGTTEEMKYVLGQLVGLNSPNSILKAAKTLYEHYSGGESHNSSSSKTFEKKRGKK
Description: The human kinase Mps-1 phosphorylates a biotinylated substrate peptide. Detection of the phosphorylated product is achieved by time-resolved fluorescence resonance energy transfer (TR-FRET) from Europium-labelled anti-phospho-Serine/Threonine antibody as donor to streptavidin labelled with cross-linked allophycocyanin (SA-XLent) as acceptor. Compounds are tested for their inhibition of the kinase activity.
N-terminally GST-tagged human full length recombinant Mps-1 kinase (purchased from Invitrogen, Karslruhe, Germany, cat. no PV4071) was used. As substrate for the kinase reaction a biotinylated peptide of the amino-acid sequence […] (C-terminus in amide form, purchased from Biosynthan GmbH, Berlin) was used.
The concentration of Mps-1 in the assay was adjusted to the activity of the enzyme lot and was chosen appropriate to have the assay in the linear range, typical enzyme concentrations were in the range of about 1 nM (final conc. in the 5 μl assay volume).
The resulting mixture was incubated 1 h at 22° C. to allow the binding of the phosphorylated peptide to the anti-phospho(Ser/Thr)-Europium-antibody. Subsequently the amount of phosphorylated substrate was evaluated by measurement of the resonance energy transfer from the Europium-labelled anti-phospho(Ser/Thr) antibody to the Streptavidin-XLent. Therefore, the fluorescence emissions at 620 nm and 665 nm after excitation at 350 nm was measured in a Viewlux TR-FRET reader (PerkinElmer LAS, Rodgau-Jügesheim, Germany). The “blank-corrected normalized ratio” (a Viewlux specific readout, similar to the traditional ratio of the emissions at 665 nm and at 622 nm, in which blank and Eu-donor crosstalk are subtracted from the 665 nm signal before the ratio is calculated) was taken as the measure for the amount of phosphorylated substrate.

| SMILES | pIC50 |
| --- | --- |
| NCCCNc1nc(-c2ccccc2)cn2c(-c3ccc(C(=O)NC4CC4)cc3)cnc12 [Example 8-1, 4-{8-[(3-Aminopropyl)amino]-6-phenylimidazo[1,2-a]pyrazin-3-yl}-N-cyclopropylbenzamide hydrochloride] | 7.68 |
| CN(C)c1ccc(CNc2nc(-c3ccccc3)cn3c(-c4ccc(C(=O)NC5CC5)cc4)cnc23)cc1 [Example 2-44, N-cyclopropyl-4-(8-{[4-(dimethylamino)benzyl]amino}-6-phenylimidazo[1,2-a]pyrazin-3-yl)benzamide] | 7.74 |
| O=C(NC1CC1)c1ccc(-c2cnc3c(NCCC(F)(F)F)nc(-c4ccccc4CO)cn23)cc1Cl [Example 1-97, 2-chloro-N-cyclopropyl-4-{6-[2-(hydroxymethyl)phenyl]-8-[(3,3,3-trifluoropropyl)amino]imidazo[1,2-a]pyrazin-3-yl}benzamide] | 8.29 |
| CC(C)CNc1nc(-c2ccc(SC3CC3)cc2)cn2c(-c3ccc(C(=O)NC4CC4)cc3)cnc12 [Example 1-127, N-cyclopropyl-4-{6-[4-(cyclopropylsulfanyl)phenyl]-8-[(2-methylpropyl)amino]imidazo[1,2-a]pyrazin-3-yl} benzamide] | 7.49 |
| O=C(NC1CC1)c1ccc(-c2cnc3c(NCCc4ccccn4)nc(-c4ccccc4)cn23)cc1 [Example 2-24, N-cyclopropyl-4-(6-phenyl-8-{[2-(pyridin-2-yl)ethyl]amino}imidazo[1,2-a]pyrazin-3-yl) benzamide] | 7.99 |
| CC(C)CNc1nc(-c2ccc3ccccc3c2)cn2c(-c3ccc(C(=O)NC4CC4)cc3)cnc12 [Example 1-42, N-cyclopropyl-4-{8-[(2-methylpropyl)amino]-6-(naphthalen-2-yl)imidazo[1,2-a]pyrazin-3-yl}benzamide] | 7.31 |
| CC(C)CNc1nc(-c2ccccc2C(=O)N(C)C)cn2c(-c3ccc(C(=O)NC4CC4)cc3)cnc12 [Example 1-28, 2-{3-[4-(cyclopropyl-carbamoyl)phenyl]-8-[(2-methylpropyl)amino]imidazo[1,2-a]pyrazin-6-yl}-N,N-dimethyl-benzamide] | 8.09 |
| NC(=O)CCNc1nc(-c2ccccc2)cn2c(-c3ccc(C(=O)NC4CC4)cc3)cnc12 [Example 2-42, 4-{8-[(3-amino-3-oxopropyl)amino]-6-phenylimidazo[1,2-a]pyrazin-3-yl}-N-cyclopropyl-benzamide] | 8.30 |
| CC(C)CNc1nc(-c2ccccc2CO)cn2c(-c3ccc(C(=O)NC4CC4)c(Cl)c3)cnc12 [Example 1-95, 2-chloro-N-cyclopropyl-4-{6-[2-(hydroxymethyl)phenyl]-8-[(2-methyl-propyl)amino]imidazo [1,2-a]pyrazin-3-yl} benzamide] | 8.28 |
| CC(C)CNc1nc(-c2ccc3c(c2)OCCO3)cn2c(-c3ccc(C(=O)NC4CC4)cc3)cnc12 [Example 1-3, N-cyclopropyl-4-{6-(2,3-dihydro-1,4-benzodioxin-6-yl)-8-[(2-methyl-propyl)amino]imidazo [1,2-a]pyrazin-3-yl} benzamide] | 7.74 |
| CC(C)CNc1nc(-c2ccc(N(C)C)cc2)cn2c(-c3ccc(C(=O)NC4CC4)cc3)cnc12 [Example 1-92, N-cyclopropyl-4-{6-[4-(dimethylamino)phenyl]-8-[(2-methylpropyl)amino]imidazo[1,2-a]pyrazin-3-yl}benzamide] | 8.12 |
| CCCc1cn2c(-c3ccc(C(=O)NC4CC4)cc3)cnc2c(NCC(C)C)n1 [Example 11-3, N-cyclopropyl-4-{8-[(2-methylpropyl)amino]-6-propylimidazo [1,2-a]pyrazin-3-yl}benzamide] | 8.27 |
| O=C(NC1CC1)c1ccc(-c2cnc3c(NCCc4ccccc4)nc(-c4ccccc4)cn23)cc1 [Example 2-7, N-cyclopropyl-4-{6-phenyl-8-[(2-phenylethyl)amino]imidazo[1,2-a]pyrazin-3-yl} benzamide] | 7.60 |
| CC(C)CNc1nc(-c2cccc(-c3ccccc3)c2)cn2c(-c3ccc(C(=O)NC4CC4)cc3)cnc12 [Example 1-69, 4-{6-(biphenyl-3-yl)-8-[(2-methylpropyl)amino]imidazo[1,2-a]pyrazin-3-yl}-N-cyclopropyl-benzamide] | 7.70 |
| CC(C)CNc1nc(-c2ccc(F)c(F)c2)cn2c(-c3ccc(C(=O)NC4CC4)cc3)cnc12 [Example 1-63, N-cyclopropyl-4-{6-(3,4-difluorophenyl)-8-[(2-methylpropyl)amino]imidazo[1,2-a]pyrazin-3-yl}benzamide] | 8.11 |
| CC(C)CNc1nc(-c2ccc(N(C)C)cc2)cn2c(-c3ccc(C(=O)NC4CC4)c(Cl)c3)cnc12 [Example 1-94, 2-chloro-N-cyclopropyl-4-{6-[4-(dimethylamino)phenyl]-8-[(2-methyl-propyl)amino]imidazo [1,2-a]pyrazin-3-yl} benzamide] | 7.70 |

These reach a higher pIC50. Values come first.

| pIC50 | SMILES |
| --- | --- |
| 8.34 | CC(C)CNc1nc(-c2cccc(C#N)c2)cn2c(-c3ccc(C(=O)NC4CC4)cc3)cnc12 [Example 1-72, 4-{6-(3-cyanophenyl)-8-[(2-methylpropyl)amino]imidazo[1,2-a]pyrazin-3-yl}-N-cyclo-propylbenzamide] |
| 8.48 | O=C(NC1CC1)c1ccc(-c2cnc3c(NCc4ccccn4)nc(-c4ccccc4)cn23)cc1 [Example 2-27, N-cyclopropyl-4-{6-phenyl-8-[(pyridin-2-ylmethyl)amino]imidazo[1,2-a]pyrazin-3-yl} benzamide] |
| 8.60 | CC(C)CNc1nc(-c2ccc(S(C)(=O)=O)cc2)cn2c(-c3ccc(C(=O)NC4CC4)cc3)cnc12 [Example 1-75, N-cyclopropyl-4-{8-[(2-methylpropyl)amino]-6-[4-(methylsulfonyl)phenyl]imidazo[1,2-a]pyrazin-3-yl}benzamide] |
| 8.32 | O=C(NC1CC1)c1ccc(-c2cnc3c(NCCCN4CCCC4=O)nc(-c4ccccc4)cn23)cc1 [Example 2-9, N-cyclopropyl-4-(8-{[3-(2-oxopyrrolidin-1-yl)propyl]amino}-6-phenylimidazo[1,2-a]pyrazin-3-yl)benzamide] |
| 8.64 | CC(C)CNc1nc(-c2ccc(F)cc2)cn2c(-c3ccc(C(=O)NC4CC4)cc3)cnc12 [Example 1-6, N-cyclopropyl-4-{6-(4-fluorophenyl)-8-[(2-methylpropyl)amino]imidazo[1,2-a]pyrazin-3-yl}benzamide] |
| 8.60 | Cn1nccc1CNc1nc(-c2ccc(F)cc2)cn2c(-c3ccc(C(=O)NC4CC4)c(F)c3)cnc12 [Example 1-119, N-cyclopropyl-2-fluoro-4-[6-(4-fluorophenyl)-8-{[(1-methyl-1H-pyrazol-5-yl)methyl]amino}imidazo[1,2-a]pyrazin-3-yl]benzamide] |
| 8.80 | CC(C)(O)CNc1nc(-c2ccc(F)cc2)cn2c(-c3ccc(C(=O)NC4CC4)cc3)cnc12 [Example 1-131, N-cyclopropyl-4-{6-(4-fluorophenyl)-8-[(2-hydroxy-2-methylpropyl)amino]imidazo[1,2-a]pyrazin-3-yl}benzamide] |
| 8.41 | CC(C)CNc1nc(-c2ccc(C(=O)N3CCCC3)cc2)cn2c(-c3ccc(C(=O)NC4CC4)cc3)cnc12 [Example 1-26, N-cyclopropyl-4-{8-[(2-methylpropyl)amino]-6-[4-(pyrrolidin-1-yl-carbonyl)phenyl]imidazo [1,2-a]pyrazin-3-yl} benzamide] |
| 8.80 | CC(C)CNc1nc(-c2ccc(N3CCN(C)CC3)cc2)cn2c(-c3ccc(C(=O)NC4CC4)cc3)cnc12 [Example 1-90, N-cyclopropyl-4-{6-[4-(4-methylpiperazin-1-yl)phenyl]-8-[(2-methyl-propyl)amino]imidazo [1,2-a]pyrazin-3-yl} benzamide] |
